The record followed here is patent publication US7312358B2, “Pharmaceutically active sulfanilide derivatives” (Laboratoires Serono SA, priority 2000, dated 2007).

The term IC50 denotes the midpoint of a concentration-inhibition curve. The low end stands for inhibition by little substance, the high end for a need for much substance. Broadly, the Ki is the equilibrium dissociation constant of an inhibitor or competing ligand from its target. As usually defined, the melting point is the temperature of the solid-liquid transition.

Molecules are shown by their SMILES.

One data set deals with T1, ratOT-R (Rattus norvegicus, UniProt P70536).
T1 construct: expressed in transfected cells; host or cells: HEK/EBNA cells
T1 sequence (P70536 1-388): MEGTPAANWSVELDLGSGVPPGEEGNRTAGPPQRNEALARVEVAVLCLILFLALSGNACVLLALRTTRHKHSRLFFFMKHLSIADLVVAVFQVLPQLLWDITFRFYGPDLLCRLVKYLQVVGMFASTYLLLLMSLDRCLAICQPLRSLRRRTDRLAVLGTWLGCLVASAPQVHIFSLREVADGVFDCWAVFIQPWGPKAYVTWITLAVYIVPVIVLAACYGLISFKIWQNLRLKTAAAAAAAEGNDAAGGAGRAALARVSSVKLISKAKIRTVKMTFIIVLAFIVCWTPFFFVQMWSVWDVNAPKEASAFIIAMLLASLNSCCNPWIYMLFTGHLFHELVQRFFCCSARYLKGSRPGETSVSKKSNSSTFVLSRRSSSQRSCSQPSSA
The data set can be described thus: Inhibition of IP3 (inositol tri-phosphate)-synthesis in HEK/EBNA-OTR cells. The data set is classed as cell-based. The conditions noted are these: [3H]-inositol, oxytocin 10 nM. On the procedure: e) Functional Assay No. 2: Inhibition of IP3 (Inositol Tri-Phosphate)-Synthesis in HEK/EBNA-OTR Cells
This assay intends to show the inhibition of the OT/OT-R mediated IP3 synthesis—being necessary to cause uterine contractions—by using test compounds of formula (I).
Stimulation of the cells: IIEK/EBNA OTR(rat or human) cells were plated out into costar 12-well plates, and equilibrated for 15-24 h with [^3H]-inositol radiolabel in medium without inositol supplement, with 1% FCS (0.5 ml/well). 4 μCi/ml were used. After this, the medium containing the label was aspirated. Then was added DMEM (without FCS, inositol), 20 mM Hepes (4-(2-hydroxyethyl)-1-piperazine-ethane-sulphonic acid), 1 mg/ml BSA containing 10 mM LiCl (freshly prepared), for […] at 37° C. The agonist (i.e. oxytocin used at a concentration of 10 nM) and the antagonists (i.e. the tests compounds of formula (1) used in a concentration of 10 μM, 1 μM, 300 nM, 100 nM, 10 nM, 1 nM, 100 pM, 10 pM, 3 pM) were added for the time required (15-45 min), followed by aspiration of the medium. Due to the […] of the OT receptor, the radiolabeled inositol is phosphorylated to yield IP3, the amount of the radiolabeled IP3 may be determined through the ensuing work-up. The reaction was stopped with 1 ml STOP-solution (i.e. 0.4 M perchloric acid), and let sit for 5-10 min at Room Temperature. Then, 0.8 ml were transferred into tubes containing 0.4 ml of neutralizing solution (0.72 M KOH/0.6M KHCO3), and the tubes vortexed and kept in the cold at least for 2 h.
Separation of IP's: The samples were spun in a table top centrifuge at 3000-4000 rpm for 15 min. 1 ml of the supernatant was transferred to new tubes containing 2.5 ml H2O. Packed resin (0.8 ml) was equilibrated with 20 ml H2O, and the whole samples poured onto the chromatography columns, thus separating the mixture. To discard free inositol, two washes with 10 ml H2O were carried out.
Elution of total IP's: The elution was achieved using 3 ml 1M ammonium formate/0.1M formic acid. The eluant was collected in scintillation counting tubes, followed by addition of 7 ml of scintillation liquid. The amount of IP3 is determined by a scintillating counter.
The activities of the sulfanilide derivatives claimed in the formula I were assessed using the above described in vitro biological assay. The values refer to the capacity of the example compounds according to formula I to effectively antagonize oxytocin-induced IP3-synthesis mediated by the oxytocin receptor.

In the next data set the target is T2, hOT-R (Homo sapiens, UniProt P30559).
T2 construct: expressed in transfected cells; host or cells: HEK (Human Embryonic Kidney) cells
T2 sequence (P30559 1-389): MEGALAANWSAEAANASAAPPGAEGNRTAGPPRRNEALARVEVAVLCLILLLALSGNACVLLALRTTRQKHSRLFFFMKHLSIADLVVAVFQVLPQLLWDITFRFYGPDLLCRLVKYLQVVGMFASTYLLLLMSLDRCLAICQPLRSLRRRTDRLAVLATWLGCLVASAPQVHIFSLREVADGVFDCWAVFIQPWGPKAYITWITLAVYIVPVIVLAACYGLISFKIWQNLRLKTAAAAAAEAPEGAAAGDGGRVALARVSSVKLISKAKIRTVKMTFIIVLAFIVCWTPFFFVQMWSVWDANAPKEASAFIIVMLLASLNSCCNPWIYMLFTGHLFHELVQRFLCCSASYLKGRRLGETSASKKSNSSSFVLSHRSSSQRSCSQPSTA
Nature of the data set: Inhibition of oxytocin mediated Ca2+-mobilization by FLIPR (HEK cells). It counts as cell-based. The conditions noted are these: fluo-4, OT 40 nM. The source says: c) Functional Assay No. 1: Inhibition of Oxytocitn Mediated Ca^2+-Mobilization by FLIPR (Fluorescent Imaging Plate Reader)
FLIPR is a machine for fluorescence imaging using a laser that is capable of illuminating a 96-well plate and a means of simultaneously reading each well thus enabling rapid measurements on a large number of samples.
This assay intends to show the inhibition of the OT/OT-R mediated calcium mobilisation—being necessary to cause uterine contractions—by using test compounds of formula (I).
Preparing the plates: FLIPR-plates were pre-coated with PLL (Poly-L-Lysine) 10 μg/ml+0.1% gelatine to attach the HEK (Human Embryonic Kidney) cells for 30 min up to 2 days at 37° C. The cells were plated out into 96-well plates (60000 cells/well).
Labelling with fluo-4: […] fluo-4 (fluorescent marker) were dissolved in 20 μl pluronic acid (20% in DMSO). The dissolved fluo-4 was then diluted in 10 ml DMEM (Dubecco's Minimal Essential Medium-F12 medium without FCS (Fetal Calf Serum). The medium was removed from the plates, followed by one wash with DNEM-F12 medium. Now, 100 μl of the DMEM-F12 medium containing fluo-4 were added and the cells incubated for 1.5-2 h (HEK-cells). The cells now contain the fluorescent marker.
Buffer: 145 mM NaCl, 5 mM KCl, 1 mM MgCl2, 10 mM Hepes, 10 mM Glucose, EGTA (Ethylene-bis oxyethylene nitrilo tetraacetic acid). Adjust to pH 7.4.
Performance of the assay: A minimum of 80 μl/well of antagonists (5×) in the above buffer (1×) were prepared (96-well plates). The antagonists were added to the well-plates at different concentrations (30 μM, 10 μM, 1 μM, 300 nM, 100 nM, 10 nM, 1 nM, 100 pM, 10 pM).
OT is added at a concentration of 40 nM.
The fluorescent marker being sensitive to the amount of Ca^2+ mobilized within the cell may be quantified by the FLIPR machine.
The activities of the sulfanilide derivatives according to formula I were assessed using the above described in vitro biological assay. The values refer to the capacity of the example compounds according to formula I to effectively antagonize oxytocin-induced intracellular Ca^2+-mobilization mediated by the oxytocin receptor.

Another data set has as its target hV1a (Homo sapiens, UniProt P37288). The data set can be described thus: In vitro competition binding assay on hV1a receptor with scintillating proximity assay. The arrangement: expressed in transfected cells; host or cells: CHO cells (membranes). The conditions noted are these: membranes from CHO cells expressing hV1a receptor; radiolabel [125I]-LVA; SPA; read-out: Binding Affinity Human V1a Ki. On the procedure:
b) In Vitro Competition Binding Assay on hV1a Receptor with Scintillating Proximity Assay
This assays allows to determine the affinity of the test compounds for the V1a receptor. Membranes from CHO cells expressing the hV1a receptor were resuspended in buffer containing 50 mM Tris-HCl, pH 7.4, 5 mM MgCl2 and 0.1% BSA (w/v). The membranes (5-10 μg) were mixed with 0.2 mg wheat-germ aglutinin (WGA) SPA bead (type A) and 0.03 nM of the radiolabel [^125I]-LVA (LVA being Linear Vasopressin Antagonist and is an analogue of AVP for competition binding experiments). Non-specific binding was determined in the presence of 1 μM AVP. The total assay volume was 100 μl. The plates (Corning 0 NBS plate) were incubated at room temperature for 2 hours and counted on a Mibrobeta plate counter. The tests compounds were used in concentrations of 30 μM, 10 μM, 1 μM, 300 nM, 100 nM, 10 nM, 1 nM, 100 pM, 10 pM. The competition binding data were analysed using the iterative, nonlinear, curve-fitting program, Graph pad “Prism”.
The binding affinities to the Via receptor of the sulfanilide derivatives claimed in the formula I were assessed using the above described in vitro biological assay. The values refer to the binding affinity (IC50; HM) of the example compounds according to formula I to the V1a receptor. From the values shown in Table 1 it can be derived that said test compounds according to formula I do show a significant binding to the Via receptor.

In a further data set the target is T3, hOT receptor (Homo sapiens, UniProt P30559).
T3 construct: expressed in transfected cells; host or cells: HEK293EBNA cells (membranes)
T3 sequence (P30559 1-389): T2 sequence (P30559 1-389)
Nature of the data set: In vitro competition binding assay on hOT receptor with scintillating proximity assay. Particulars: membranes from HEK293EBNA cells expressing hOT receptor; radiolabel [125I]-OVTA; SPA; read-out: Binding Affinity Human OT-R Ki. The procedure, abridged:
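SPA competition binding using HEK293EBNA membranes expressing hOT receptor (2-4 μg) with WGA beads and 0.2 nM [125I]-OVTA in 50 mM Tris-HCl pH 7.4, 5 mM MgCl2, 0.1% BSA, 30 min at room temperature. Non-specific binding with 1 μM oxytocin; compounds at 10 pM–30 μM; IC50 by nonlinear curve fitting.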

Sequence of hV1a (P37288 whole entry): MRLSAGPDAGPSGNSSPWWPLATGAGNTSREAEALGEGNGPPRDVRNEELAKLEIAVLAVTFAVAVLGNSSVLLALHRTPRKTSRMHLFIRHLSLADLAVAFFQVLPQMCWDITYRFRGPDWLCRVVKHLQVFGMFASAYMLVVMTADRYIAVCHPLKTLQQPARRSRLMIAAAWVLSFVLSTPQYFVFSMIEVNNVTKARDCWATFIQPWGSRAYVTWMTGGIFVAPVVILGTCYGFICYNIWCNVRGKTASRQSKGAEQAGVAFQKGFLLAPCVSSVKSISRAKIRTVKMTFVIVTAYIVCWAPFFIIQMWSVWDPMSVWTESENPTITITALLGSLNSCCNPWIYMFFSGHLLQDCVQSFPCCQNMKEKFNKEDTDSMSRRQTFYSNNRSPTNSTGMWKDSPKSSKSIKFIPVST

On to `Cc1c(Cl)cccc1NC(=O)CN(c1ccc(Br)cc1)S(=O)(=O)c1ccccc1` [2-[Benzenesulfonyl-(4-bromo-phenyl)-amino]-N-(3-chloro-2-methyl-phenyl)-acetamide], for which the IC50 is 110 nM against ratOT-R and 353 nM on hOT-R. As for `Cc1c(Cl)cccc1NC(=O)CN(c1ccc(Cl)cc1)S(=O)(=O)c1ccccc1` [2-[Benzenesulfonyl-(4-chloro-phenyl)-amino]-N-(3-chloro-2-methyl-phenyl)-acetamide], the values for the IC50 against ratOT-R and against hOT-R were 320 nM and 443 nM, respectively. For the compound `COc1ccc(S(=O)(=O)N(CC(=O)N/N=C/c2ccccc2O)c2ccc(Cl)cc2)cc1OC` [Example 37, N-(4-chlorophenyl)-N-{2-[(2E)-2-(2-hydroxybenzylidene)hydrazino]-2-oxoethyl}-3,4-dimethoxybenzenesulfonamide], the melting point lay within 188 to 189 °C. Also, the Ki on hV1a was found to be 550 nM.

In the case of `Cc1ccc(N(CC(=O)NCC(O)c2ccccc2)S(=O)(=O)c2ccc(C)cc2)cc1` (stereo not shown) [N-(2-Hydroxy-2-phenyl-ethyl)-2-[(toluene-4-sulfonyl)-p-tolyl-amino]-acetamide], the Ki at hV1a was 370 nM. Same read-out and setting: then `O=C(CN(c1cccc(Br)c1)S(=O)(=O)c1ccccc1)N/N=C/c1ccccc1O` [N-(3-Bromo-phenyl)-N-(2-hydroxy-benzylidene-hydrazinocarbonylmethyl)-benzenesulfonamide], with 503 nM; and `O=C(CN(c1ccc(Br)cc1)S(=O)(=O)c1ccccc1)N1CCc2ccccc2C1` [N-(4-Bromo-phenyl)-N-[2-(3,4-dihydro-1H-isoquinolin-2-yl)-2-oxo-ethyl]-benzenesulfonamide], with 58 nM. Turning to `O=C(CN(c1ccc(Cl)cc1)S(=O)(=O)c1ccccc1)N/N=C/c1ccccc1O` [N-(4-Chloro-phenyl)-N-(2-hydroxy-benzylidene-hydrazinocarbonylmethyl)-benzenesulfonamide], the Ki on hV1a came to 750 nM. For the compound `CCOc1ccc(S(=O)(=O)N(CC(=O)N2CCc3ccccc3C2)c2ccc(C)cc2)cc1` [N-[2-(3,4-Dihydro-1H-isoquinolin-2-yl)-2-oxo-ethyl]-4-ethoxy-N-p-tolyl-benzenesulfonamide], the Ki at hV1a amounted to 375 nM; on hOT receptor it was 246 nM. In the case of `O=C(CN(c1ccccc1)S(=O)(=O)c1ccccc1)N/N=C1\C(=O)Nc2ccccc21` [N-{2-oxo-2-[2-(2-oxo-1,2-dihydro-3H-indol-3-ylidene)hydrazino]ethyl}-N-phenylbenzenesulfonamide], the IC50 against ratOT-R stood at 300 nM. As for `C/C(=N\NC(=O)CN(c1ccc(Br)cc1)S(=O)(=O)c1ccccc1)c1ccccc1O` [drawing 134, N-(4-Bromo-phenyl)-N-[1-(2-hydroxy-phenyl)-ethylidenehydrazinocarbonylmethyl]-benzenesulfonamide], the Ki at hV1a turned out to be 391 nM. As for `C/C(=N\NC(=O)CN(c1ccc(Br)cc1)S(=O)(=O)c1ccccc1)c1ccccc1O` [drawing 139, N-(4-Bromo-phenyl)-N-[1-(2-hydroxy-phenyl)-ethylidene-hydrazinocarbonylmethyl]-benzenesulfonamide], the Ki on hV1a worked out at 800 nM. As for `C/C(=N\NC(=O)CN(c1ccc(Br)cc1)S(=O)(=O)c1ccccc1)c1ccccc1O` [drawing 168, N-(4-bromophenyl)-N-(2-{2-[1-(2-hydroxyphenyl)ethylidene]hydrazino}-2-oxoethyl)benzenesulfonamide], at ratOT-R, the IC50 amounted to 48 nM.
